Test results: patent US10722575B2, “Use of 1,3-diphenylprop-2-en-1-one derivatives for treating liver disorders” (GENFIT, priority 2009, dated 2020)

System: ob/ob mice
Assay: ob/ob mice, hepatic gene expression by quantitative RT-PCR after 26 days of treatment
Assay type: in vivo
Conditions: 26 days daily gavage, Cpd 29 10 and 30 mg/kg/day, Fenofibrate 100 mg/kg/day, Rosiglitazone 10 mg/kg/day
Procedure: The compounds of the General Formula (I) were tested in a murine model of type II diabetes, the ob/ob mice. Mice were daily orally treated with the Compound 29 of WO 2004/005233 at two different doses (10 and 30 mg/kg/day) and with the prototypical PPARalpha- and PPARgamma-specific reference compounds (Fenofibrate at 100 mg/kg/day and Rosiglitazone at 10 mg/kg/day respectively). After 26 days of treatment, animals were sacrificed and plasma samples and livers were harvested. Hepatic expression of genes that are known to be implicated in the liver inflammation process was evaluated and plasmatic levels of ALAT were measured (Panels A-C). […]
Male ob/ob mice (8 weeks of age) were purchased from Charles River (L'Arbresle, France) and were kept on a 12-hour light/dark cycle at a constant temperature of 20±3° C. After a 1 week acclimation, mice were separated in groups of 8 animals selected such that the distribution of their body weight and their 6 hours fasting glycemia determined before the experiment were uniform. […]
Total RNA was isolated from frozen livers using the NucleoSpin® 96 RNA kit (Macherey Nagel), according to the manufacturer's instructions. […] Quantitative PCR was then carried out using the MyiQ Single-Color Real-Time PCR Detection System (Biorad). […]

Q: With “1-[4-methylthiophenyl]-3-[3,5-dimethyl-4-carboxydimethylmethyloxyphenyl]prop-2-en-1-one [Cpd 29]” as the substance, how does the “hepatic expression of TNFalpha” value (FIG. 2A) read?
A: inhibited the expression of this cytokine in a dose-response manner

Q: And the “hepatic expression level of TGFbeta” value (FIG. 2B)?
A: inhibited the expression of this growth factor in a dose-response manner
